Literature values as cited in patent US20110142971A1, “USE OF AN ONION EXTRACT FOR MAKING A COMPOSITION TO CONTROL WEIGHT GAIN” (priority 2005, published 2011).

How the values were obtained:
[1] = in vivo
pancreatic lipase = molecular target: T1, pancreatic lipase (Homo sapiens, UniProt P16233); details: human species
T1 construct: host or cells: human subjects (in vivo, digestive tract)
T1 sequence (P16233 17-465): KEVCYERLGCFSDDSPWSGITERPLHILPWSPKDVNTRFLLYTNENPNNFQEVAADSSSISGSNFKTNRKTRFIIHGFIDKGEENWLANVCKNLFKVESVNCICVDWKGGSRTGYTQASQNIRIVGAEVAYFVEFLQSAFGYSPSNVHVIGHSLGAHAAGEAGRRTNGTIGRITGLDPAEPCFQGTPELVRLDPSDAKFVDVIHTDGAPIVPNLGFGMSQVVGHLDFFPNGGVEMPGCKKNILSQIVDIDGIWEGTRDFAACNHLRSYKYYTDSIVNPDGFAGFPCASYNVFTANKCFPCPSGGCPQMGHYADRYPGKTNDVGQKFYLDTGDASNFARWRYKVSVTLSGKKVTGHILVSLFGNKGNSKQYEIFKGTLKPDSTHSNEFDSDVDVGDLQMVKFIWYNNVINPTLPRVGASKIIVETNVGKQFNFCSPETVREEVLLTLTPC

Compound: CCCCCCCCCCC[C@@H](C[C@@H]1OC(=O)[C@H]1CCCCCC)OC(=O)[C@H](CC(C)C)NC=O [tetrahydrolipstatin, [2S-[2-α(R),3β]]-N-formyl-L-leucine 1-[(3-hexyl-4-oxo-2-oxetanyl)methyl]dodecyl ester]
- Side effects [1]: steatorrhoea, anal exudation, abdominal pains, nausea and vomiting, or fat-soluble vitamin absorption reduction
- Average reduction of the lipids contained in food (pancreatic lipase): about one third
